In PubChem BioAssay AID248 (DTP/NCI, 2004):
Where “and” joins values, the source holds several entries; their conditions need not be identical. Identical values can stand only once. Inconclusive results and toxic doses are left out.

Tested on: L1210 leukemia ip in BDF1 mice, survival T/C
Assay: NCI In Vivo Anticancer Drug Screen. Data for tumor model L1210 Leukemia (intraperitoneal) in B6D2F1 (BDF1) mice
Conditions: endpoint: mean survival time, higher = longer survival
Outline: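 Each compound was tested against a transplantable tumor grown in mice. The endpoint was survival, with treated animals benchmarked against vehicle controls as a simple ratio.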

[1] = dose: 100.0 mg/kg/injection, schedule: Q04DX003 (ip), vehicle: Klucel (hydroxypropylcellulose) (HPC)
[2] = dose: 200.0 mg/kg/injection, schedule: Q04DX003 (ip), vehicle: Klucel (hydroxypropylcellulose) (HPC)
[3] = dose: 400.0 mg/kg/injection, schedule: Q04DX003 (ip), vehicle: Klucel (hydroxypropylcellulose) (HPC)
[4] = dose: 100.0 mg/kg/injection, schedule: Q01DX001 (ip), vehicle: carboxymethylcellulose (CMC)
[5] = dose: 100.0 mg/kg/injection, schedule: Q01DX009 (ip), vehicle: saline with Tween-80
[6] = dose: 100.0 mg/kg/injection, schedule: Q04DX003 (ip), vehicle: saline with Tween-80
[7] = dose: 200.0 mg/kg/injection, schedule: Q01DX001 (ip), vehicle: carboxymethylcellulose (CMC)
[8] = dose: 50.0 mg/kg/injection, schedule: Q01DX009 (ip), vehicle: Klucel (hydroxypropylcellulose) (HPC)
[9] = dose: 100.0 mg/kg/injection, schedule: Q01DX009 (ip), vehicle: Klucel (hydroxypropylcellulose) (HPC)
[10] = dose: 200.0 mg/kg/injection, schedule: Q01DX009 (ip), vehicle: Klucel (hydroxypropylcellulose) (HPC)
[11] = dose: 25.0 mg/kg/injection, schedule: Q01DX009 (ip), vehicle: saline

For `O=C(Nc1ccc(C(=O)O)cc1)Nc1ccccc1Cl`, the T/C (dose: 25.0 mg/kg/injection, schedule: Q04DX002 (ip), vehicle: saline) was 106 % of control, the T/C (dose: 50.0 mg/kg/injection, schedule: Q04DX002 (ip), vehicle: saline) was 100 % of control and the T/C (dose: 100.0 mg/kg/injection, schedule: Q04DX002 (ip), vehicle: saline + alcohol) was 114 % of control. For the same compound, the T/C (dose: 100.0 mg/kg/injection, schedule: Q04DX002 (ip), vehicle: saline) was 118 % of control.

For `CCSCCOC(=S)Nc1ccccc1`, the T/C [1] was 98 % of control, the T/C [2] was 97 % of control and the T/C [3] was 92 % of control.

In the case of `CCC[CH2][Sn]1([CH2]CCC)[O]C(=O)C[S]1`, the T/C (dose: 0.78 mg/kg/injection, schedule: Q04DX003 (ip), vehicle: saline) is reported as 105 % of control, the T/C (dose: 1.5 mg/kg/injection, schedule: Q01DX Z (ip), vehicle: saline) is reported as 97 % of control and the T/C (dose: 1.56 mg/kg/injection, schedule: Q01DX001 (ip), vehicle: acetone) is reported as 96 % of control. The T/C (dose: 1.56 mg/kg/injection, schedule: Q04DX003 (ip), vehicle: saline) was 109 % of control, the T/C (dose: 2.5 mg/kg/injection, schedule: Q01DX009 (ip), vehicle: acetone) was 105 % of control and the T/C (dose: 3.0 mg/kg/injection, schedule: Q01DX Z (ip), vehicle: saline) was 106 % of control. The T/C (dose: 3.12 mg/kg/injection, schedule: Q01DX001 (ip), vehicle: acetone) was 104 % of control, the T/C (dose: 3.12 mg/kg/injection, schedule: Q04DX003 (ip), vehicle: saline) was 109 % of control and the T/C (dose: 4.6 mg/kg/injection, schedule: Q04DX003 (ip), vehicle: saline) was 107 % of control. The T/C (dose: 6.0 mg/kg/injection, schedule: Q01DX Z (ip), vehicle: saline) was 90 % of control, the T/C (dose: 6.25 mg/kg/injection, schedule: Q01DX001 (ip), vehicle: acetone) was 105 % of control and the T/C (dose: 6.25 mg/kg/injection, schedule: Q04DX002 (ip), vehicle: saline with Tween-80) was 101 % of control. For the same compound, the T/C (dose: 7.0 mg/kg/injection, schedule: Q04DX003 (ip), vehicle: saline) was 97 % of control, the T/C (dose: 10.0 mg/kg/injection, schedule: Q04DX003 (ip), vehicle: saline) was 108 % of control and the T/C (dose: 12.5 mg/kg/injection, schedule: Q04DX002 (ip), vehicle: saline with Tween-80) was 96 % of control. For the same compound, the T/C (dose: 100.0 mg/kg/injection, schedule: Q04DX002 (ip), vehicle: saline with Tween-80) was 106 % of control.

`Nc1nc(N)c2[nH]c(CCCc3ccccc3)nc2n1` was tested, and the T/C (dose: 50.0 mg/kg/injection, schedule: Q04DX002 (ip), vehicle: Klucel (hydroxypropylcellulose) (HPC)) was 98 % of control, the T/C (dose: 100.0 mg/kg/injection, schedule: Q04DX002 (ip), vehicle: Klucel (hydroxypropylcellulose) (HPC)) was 98 % of control and the T/C (dose: 200.0 mg/kg/injection, schedule: Q04DX002 (ip), vehicle: Klucel (hydroxypropylcellulose) (HPC)) was 98 % of control.

For `CC(=O)Nc1ccc2c(c1)C[N+](C)(C1CCCCC1)CO2` (stereo not drawn), the T/C (dose: 25.0 mg/kg/injection, schedule: Q01DX009 (ip), vehicle: saline with Tween-80) was 101 % of control, the T/C (dose: 25.0 mg/kg/injection, schedule: Q01DX015 (ip), vehicle: carboxymethylcellulose (CMC)) was 103 % of control and the T/C (dose: 50.0 mg/kg/injection, schedule: Q01DX009 (ip), vehicle: saline with Tween-80) was 95 % of control. The T/C (dose: 50.0 mg/kg/injection, schedule: Q01DX015 (ip), vehicle: carboxymethylcellulose (CMC)) was 98 % of control, the T/C (dose: 50.0 mg/kg/injection, schedule: Q04DX003 (ip), vehicle: saline with Tween-80) was 97 % of control and the T/C [4] was 92 % of control. The T/C [5] was 95 % of control, the T/C [6] was 100 % of control and the T/C [7] was 94 % of control.

In the case of `C=CCNC(=S)Nc1ccc(C)cc1`, the T/C [8] is reported as 95 % of control, the T/C [9] is reported as 97 % of control and the T/C [1] is reported as 103 % of control. For the same compound, the T/C [10] was 100 % of control, the T/C [2] was 101 % of control and the T/C [3] was 88 % of control.

`CCc1cc[c]([Hg][Cl])o1` was tested, and the T/C (dose: 12.5 mg/kg/injection, schedule: Q01DX001 (ip), vehicle: other) was 100 % of control and the T/C (dose: 25.0 mg/kg/injection, schedule: Q01DX001 (ip), vehicle: other) was 100 % of control.

`O=P(OCc1ccccc1)(OCc1ccccc1)C(Nc1ccccc1)c1ccccc1` (stereo not drawn) was tested, and the T/C [8] was 100 % of control, the T/C [9] was 103 % of control and the T/C [1] was 100 % of control. The T/C [10] was 103 % of control, the T/C [2] was 94 % of control and the T/C [3] was 93 % of control.

`O=C(Nc1ccc(NC(=O)Nc2cc(C(=O)Nc3ccc(C4=NCCN4)cc3)ccc2C(=O)Nc2ccc(C3=NCCN3)cc2)cc1)Nc1cc(C(=O)Nc2ccc(C3=NCCN3)cc2)ccc1C(=O)Nc1ccc(C2=NCCN2)cc1` was tested, and the T/C (dose: 100.0 mg/kg/injection, schedule: Q01DX Z (oral), vehicle: saline) was 93 % of control, the T/C (dose: 120.0 mg/kg/injection, schedule: Q01DX Z (ip), vehicle: saline) was 120 % of control and the T/C (dose: 200.0 mg/kg/injection, schedule: Q01DX Z (oral), vehicle: saline) was 98 % of control. The T/C (dose: 400.0 mg/kg/injection, schedule: Q01DX Z (oral), vehicle: saline) was 101 % of control.

With `N#CN1CCCC1` the T/C (dose: 44.0 mg/kg/injection, schedule: Q01DX Z (ip), vehicle: saline) was 98 % of control and the T/C (dose: 66.0 mg/kg/injection, schedule: Q01DX Z (ip), vehicle: saline) was 102 % of control.

`Nc1cccc(C(F)(F)F)c1` was tested, and the T/C [11] was 103 % of control, the T/C (dose: 50.0 mg/kg/injection, schedule: Q01DX009 (ip), vehicle: saline) was 103 % of control and the T/C (dose: 100.0 mg/kg/injection, schedule: Q01DX009 (ip), vehicle: saline) was 94 % of control and 88 % of control.

For `O=P(N1CCOCC1)(N1CC1)N1CC1`, the T/C (dose: 2.3 mg/kg/injection, schedule: Q01DX015 (ip), vehicle: saline) was 103 % of control, the T/C (dose: 3.5 mg/kg/injection, schedule: Q01DX015 (ip), vehicle: saline) was 108 % of control and the T/C (dose: 5.3 mg/kg/injection, schedule: Q01DX015 (ip), vehicle: saline) was 114 % of control. The T/C (dose: 6.2 mg/kg/injection, schedule: Q01DX001 (ip), vehicle: saline) was 105 % of control, the T/C (dose: 9.3 mg/kg/injection, schedule: Q01DX001 (ip), vehicle: saline) was 107 % of control and the T/C (dose: 12.5 mg/kg/injection, schedule: Q01DX009 (ip), vehicle: saline) was 196 % of control. The T/C (dose: 14.0 mg/kg/injection, schedule: Q01DX001 (ip), vehicle: saline) was 112 % of control, the T/C (dose: 14.0 mg/kg/injection, schedule: Q01DX015 (ip), vehicle: saline) was 210 % of control and the T/C (dose: 23.0 mg/kg/injection, schedule: Q01DX015 (ip), vehicle: saline) was 246 % of control. The T/C [11] was 116 % of control, the T/C (dose: 33.0 mg/kg/injection, schedule: Q01DX001 (ip), vehicle: saline) was 157 % of control and the T/C (dose: 38.0 mg/kg/injection, schedule: Q01DX015 (ip), vehicle: saline) was 104 % of control.

For `FC(F)(F)c1ccc(-c2ccc(OCCN3CCCC3)cc2)cc1`, the T/C (dose: 4.68 mg/kg/injection, schedule: Q01DX009 (ip), vehicle: saline) was 97 % of control, the T/C (dose: 9.37 mg/kg/injection, schedule: Q01DX009 (ip), vehicle: saline) was 92 % of control and the T/C (dose: 18.75 mg/kg/injection, schedule: Q01DX009 (ip), vehicle: saline) was 94 % of control and 89 % of control. The T/C (dose: 37.5 mg/kg/injection, schedule: Q01DX009 (ip), vehicle: saline) was 90 % of control, the T/C (dose: 37.5 mg/kg/injection, schedule: Q04DX003 (ip), vehicle: saline) was 93 % of control and the T/C (dose: 75.0 mg/kg/injection, schedule: Q04DX003 (ip), vehicle: saline) was 102 % of control. The T/C (dose: 150.0 mg/kg/injection, schedule: Q04DX003 (ip), vehicle: saline) was 87 % of control.

For `O=C(O)c1cc(-c2ccccc2)cc(Br)c1O`, the T/C [4] was 93 % of control and the T/C [7] was 95 % of control.

For `COC(=O)/C=C(\C)Nc1ccc(C(=O)C2CCCCC2)cc1`, the T/C (dose: 100.0 mg/kg/injection, schedule: Q01DX001 (ip), vehicle: other) was 90 % of control, the T/C (dose: 200.0 mg/kg/injection, schedule: Q01DX001 (ip), vehicle: other) was 95 % of control and the T/C (dose: 400.0 mg/kg/injection, schedule: Q01DX001 (ip), vehicle: other) was 96 % of control.

For `CCN/C(C)=C\C(=O)OCC`, the T/C [5] was 95 % of control, the T/C [6] was 96 % of control and the T/C (dose: 200.0 mg/kg/injection, schedule: Q01DX009 (ip), vehicle: saline with Tween-80) was 111 % of control. The T/C (dose: 200.0 mg/kg/injection, schedule: Q04DX003 (ip), vehicle: saline with Tween-80) was 107 % of control, the T/C (dose: 400.0 mg/kg/injection, schedule: Q01DX009 (ip), vehicle: saline with Tween-80) was 95 % of control and the T/C (dose: 400.0 mg/kg/injection, schedule: Q04DX003 (ip), vehicle: saline with Tween-80) was 105 % of control.
